How the values were obtained:
[1] = system: Progesterone receptor mRNA; test: Progesterone receptor mRNA regulation in the preoptic area of the rat brain; format: in vivo; conditions: 10 mg/kg
[2] = system: human endometrial tissue implanted into ovariectomized athymic nude mice; test: Endometriosis test procedure: human endometrial tissue implanted into nude mice; format: in vivo, mouse
Protocol: This procedure is slightly modified from a published method [Bruner-Tran. et al., Journal of Clinical Investigation 99: 2851-2857 (1997)]. […] Lesions are allowed to establish for at least 10 days, then oral daily dosing begins and continues for at least 15 days. It should be noted that all mice have visible lesions at the start of dosing. At necropsy, the number of mice with lesions is determined, as well as the lesions per mouse.

Lewis rats = test: Lewis rat adjuvant-induced arthritis, treatment protocol: joint score (maximal score per day 12); format: in vivo; conditions: s.c. daily, begun Day 8 after adjuvant
[3] = Cytosolic incubation in the presence of PAPS (sulfation), rat; format: in vitro ADME
Protocol: These pilot incubations (1.0 mL incubation volume) were conducted using a substrate concentration of 100 μM ERB-041 at 37° C. for 60 mins. Incubations were terminated by the addition of an equal volume of chilled acetonitrile. Large-scale incubations (a total of 60 incubations @ 1.0 mL incubation volume) to generate sufficient quantities of the sulfate metabolites for structure elucidation were subsequently conducted as described above at 37° C. for 60 mins. Appropriate substrate controls and incubations without addition of PAPS were conducted. Additional incubations (a total of 120 @ 2.0 mL incubation volume, 50 μM ERB-041) were also conducted in a similar manner to isolate sufficient amounts of ERB-041-sulfates to enable full structural identification. Reserved phase-HPLC was utilized for all metabolite analysis. To confirm the formation of glucuronide and sulfate conjugates of ERB-041 in pilot scale incubations, HPLC analysis was performed using an Agilent 1100 LC system equipped with a diode array detector (Agilent Technologies, Wilmington, Del.). […] Rat liver and human liver cytosol incubations produced similar profiles. […] Further confirmation of the identity of the isolated metabolites […] and M9 from the large-scale incubations was obtained using LC-MS analysis (ESI, negative ionization). […]

[4] = system: ovulation (number of oocytes ovulated); test: Ovulation inhibition test procedure; format: in vivo; conditions: 50 mg/kg
Excerpt: The test procedure is used to determine whether test compounds can inhibit or change the timing of ovulation. It can also be used to determine the number of oocytes ovulated [Lundeen, et al., J Steroid Biochem Mol Biol 78: 137-143 (2001)]. The following data were obtained from representative metabolites of compounds from the invention (Table 22).

[5] = Cytosolic incubation in the presence of PAPS (sulfation), human; format: in vitro ADME; conditions: 100 μM, 37° C., 60 mins, with PAPS; human liver cytosol
Protocol: These pilot incubations (1.0 mL incubation volume) were conducted using a substrate concentration of 100 μM ERB-041 at 37° C. for 60 mins. Incubations were terminated by the addition of an equal volume of chilled acetonitrile. Reserved phase-HPLC was utilized for all metabolite analysis. To confirm the formation of glucuronide and sulfate conjugates of ERB-041 in pilot scale incubations, HPLC analysis was performed using an Agilent 1100 LC system equipped with a diode array detector (Agilent Technologies, Wilmington, Del.). […] Rat liver and human liver cytosol incubations produced similar profiles. […] Further confirmation of the identity of the isolated metabolites […] and M9 from the large-scale incubations was obtained using LC-MS analysis (ESI, negative ionization). In the large-scale incubation, approximately 23% of ERB-041 was converted to the two sulfate conjugates. Separation of the two sulfate metabolites was achieved using gradient solvent system C described supra.

[6] = Microsomal incubation in the presence of UDPGA (glucuronidation); format: in vitro ADME, rat; conditions: 100 μM, 37° C., 60 mins, with UDPGA
Protocol: An analytical scale incubation of ERB-041 with male SD rat liver microsomes in the presence of UDPGA was conducted in phosphate buffer (0.1 M, pH 7.4) containing 1 mg/mL rat liver microsomal protein with final concentrations of 5 mM magnesium chloride and 4 mM UDPGA. This pilot incubation (1.0 mL incubation volume) was conducted using a substrate concentration of 100 μM at 37° C. for 60 mins. Incubations were terminated by the addition of an equal volume of chilled acetonitrile. Large-scale incubations (a total of 37 incubations @ 5.0 mL incubation volume) to generate sufficient quantities of the glucuronide metabolites for structure elucidation were subsequently conducted as described above at 37° C. for 60 mins. Appropriate substrate controls and incubations without addition of UDPGA were also carried out. Reserved phase-HPLC was utilized for all metabolite analysis. To confirm the formation of glucuronide and sulfate conjugates of ERB-041 in pilot scale incubations, HPLC analysis was performed using an Agilent 1100 LC system equipped with a diode array detector (Agilent Technologies, Wilmington, Del.). […] Separation of the two metabolites was achieved using gradient solvent system B as described supra.

For `Oc1cc(Br)c2oc(-c3ccc(O)c(F)c3)nc2c1` [Example 21, 7-BROMO-2-(3-FLUORO-4-HYDROXYPHENYL)-1,3-BENZOXAZOL-5-OL], the “Progesterone receptor mRNA (mean ± stdev)” value [1] was 110.5 ± 19.3 arbitrary units.

In the case of `C=Cc1cc(O)cc2nc(-c3ccc(O)c(F)c3)oc12` [Example 24, 2-(3-FLUORO-4-HYDROXYPH ENYL)-7-VI NYL-1,3-BENZOXAZOL-5-OL], the “lesions at necropsy versus vehicle” value ([2]; 10 mg/kg, evaluated three times) is reported as “fewer lesions at necropsy than those mice dosed with vehicle”, the “lesions found per animal” value ([2]; Study 1, 10 mg/kg oral daily) is reported as “one lesion” and the “mice with lesion regression” value ([2]; Study 1, 10 mg/kg oral daily) is reported as “four of six mice”. The “mice with any lesions at necropsy” value ([2]; Study 1, 10 mg/kg oral daily, vehicle: four of four mice) was “two of six mice”, the Joint inflammation score (Lewis rats; table Day 1) was 11.33 and the Joint inflammation score (Lewis rats; table Day 2) was 11.15. For the same molecule, the Joint inflammation score (Lewis rats; table Day 3) was 11.33, the Joint inflammation score (Lewis rats; table Day 4) was 9.50 and the Joint inflammation score (Lewis rats; table Day 5) was 8.00. It also gave a Joint inflammation score (Lewis rats; table Day 6) of 7.00, a Joint inflammation score (Lewis rats; table Day 7) of 5.83 and a Joint inflammation score (Lewis rats; table Day 8) of 4.83. It also gave a Joint inflammation score (Lewis rats; table Day 9) of 3.50, a Joint inflammation score (Lewis rats; table Day 10) of 3.83 and a Joint inflammation score (Lewis rats; table Day 11) of 3.83. For the same molecule, the Joint inflammation score (Lewis rats; table Day 12) was 3.83, the Joint inflammation score (Lewis rats; table Day 13) was 3.16 and the Joint inflammation score (Lewis rats; table Day 14) was 3.16. For the same molecule, the Joint inflammation score (Lewis rats; table Day 15) was 2.83, the Joint inflammation score (Lewis rats; table Day 16) was 2.83 and the Joint inflammation score (Lewis rats; table Day 17) was 2.00. The Metabolites detected ([3]; 100 μM, 37° C., 60 mins, with PAPS, rat liver cytosol) was “two metabolites (M9A and M9) were detected”, the “converted to the two sulfate conjugates” value ([3]; large-scale incubation with PAPS) was “approximately 23%” and the “Number of oocytes (mean ± SEM)” value [4] was 13.86 ± 0.77. The Metabolites detected [5] was “two metabolites (M9A and M9) were detected” and the Metabolites detected [6] was “two major metabolites, M5 and M6, were detected”.

Reference: patent US20060046968A1, “Prodrug substituted benzoxazoles as estrogenic agents” (priority 2004, published 2006)
